Reference: patent US20100093861A1, “TREATMENT OF INSULIN RESISTANCE OR DISEASES ASSOCIATED WITH INSULIN RESISTANCE” (Stevia ApS, priority 2006, published 2010)

Tests used:
[1] = system: isolated NMRI mice islets; assay: Glucose stimulated insulin secretion (GSIS) from isolated NMRI mice islets; type: cell-based; conditions: 10^−8 mol/l-10^−6 mol/l, 16.7 mmol/l glucose, 60 minutes
Description: For in vitro studies with steviol and ISV, we included adult female NMRI mice (Taconic, Ry Denmark), all weighing 22-25 g. We used 12 hours light/dark cycle. The Danish Council for Animal experiments has approved the study.
Islets were isolated by the collagenase digestion technique. In brief, the animals were anesthetized with pentobarbital (50 mg/kg intraperitoneally) and midline laparotomy was performed. The pancreas was retrogradely filled with 3 mL ice-cold Hanks balanced salt solution (([HBSS] Sigma Chemical, St Louis, Mo.) supplemented with 0.3 mg/ml collagenase Boehringer Mannheim GmbH, Germany). The pancreas was subsequently removed and incubated for 19 minutes at 37° C. After rinsing in HBSS, the islets were handpicked under a stereomicroscope and immediately transferred to a tubes containing 1 ml Trizol (Gibco/Invitrogene, Calsbad, Calif., USA). The islets isolated from the NMRI mice were incubated overnight at 37° C. and 95% normal atmosphere/5% CO2 in 10 ml RPMI 1640 containing 11.1 mmol/L glucose supplemented with penicillin G and 100 μg/mL streptomycin (all Gibco/Invitrogene, Calsbad, Calif., USA).
The NMRI female mice islets were rinsed twice with a modified Krebs-Ringer buffer (KRB) supplemented with 3.3 mmol/L glucose and 0.1% human serum albumin (Sigma). The KRB contained 125 mmol/L NaCl, 5.9 mmol/L KCl, 1.2 MgCl, 1.28 CaCl2 and 25 mmol/L HEPES (Ph 7.4: all Sigma). Single islets were incubated in 100 μL KRB containing glucose (3.3 and 16.7 mmol/L) and steviol/ISV according to the protocols (Jeppesen et al., 2000). After incubation (60 min), 50 μL of the medium was frozen for RIA analysis of insulin.

isolated mouse islets = conditions: previously demonstrated (Jeppesen, P. B. et al., 2000); cited from earlier work

Question: For `C=C1C[C@@]23CC[C@H]4[C@@](C)(CCC[C@@]4(C)C(=O)O)[C@@H]2CC[C@]1(O)C3` [steviol, ent-kaur-16-en-13-ol-19-oic acid], which “potency on GSIS, isosteviol compared with steviol, at higher concentration” value [1] is on record?
Answer: not found any significant difference

Question: And the “insulinotropic effect on isolated mouse islets” value (isolated mouse islets)?
Answer: potent insulinotropic effect
